Measured values as given in patent US9981037B2, “Combination therapy of beta-glycolipids and antibodies for the treatment of immune-related disorders” (HADASIT MEDICAL RESEARCH SERVICES AND DEVELOPMENT LTD., priority 2008, dated 2018).

Assays:
T cells = assay: FACS of activation and regulatory markers on T cells; format: in vivo, human
Procedure: Frozen PBMCs were used for sorting different cell populations, surface staining, and proliferation assays, and cytokine measurements. Cell sorting was performed by thawing […] PBMCs at room temperature (RT) and washing themed twice in medium at RT in 50-ml tubes in a 10-ml volume at 1,400 rpm. Cells were suspended to 20×10^6/ml and stained with seven colors staining of cells using Fc block, Lin-FITC, CD11c-APC, CD123-PE, CD3-Amcyan, CD4-Alexa700, CD25-PB, and 7-AAD was performed. Compensation controls, including an unstained control, were prepared. All samples were washed with medium and filtered into 15-ml tubes with 2 ml volume each to a total volume of 2 ml. CD4+ effector T cells, CD4+ regulatory T cells, myeloid DCs, and plasmacytoid DCs were sorted. Tubes were washed to get retrieve all sticky cells and spin them at 1,400 rpm. All cell populations were put in 350 μl of RLT 350 ul (lysis buffer), and transferred to eppendorff microtubes, and froze at −70° C. RNA was prepared using Qiagen micro kits (Valencia, Calif., USA) and cDNA was prepared using Applied Biosystems kits (Foster City, Calif., USA). We performed real-time PCR (RT-PCR) for different genes on in regulatory T cells, effector T cells, and DCs was performed.
For surface staining, one tube of frozen PBMCs was thawed at room temperature (RT) and washed twice in medium at RT in 50-ml tubes (10-ml volume) at 1,400 rpm. Cells were re-suspended cells at 8-10×10^6 cells/ml and 100 μl was aliquoted into each of 100 ul in 11 wells. For LAP+ cells (two wells), controls wells were preincubated with rLAP for 20 mins, and seven-colors staining of cells using CD3-Amcyan, CD4-Alexa700, CD8-APC, CD25-PB, and LAP-PE for 40 mins was preformed for 40 minutes. Cells were washed and stained with Annexin FITC and 7-AAD in Annexing binding buffer for 15 minutes. Cells were washed and analyzed immediately in Annexin Binding Buffer.
For Foxp3 surface staining (two wells), surface six-colors staining of cells using CD3-Amcyan, CD4-Alexa700, CD8-APC, and CD25-PB were performed for 30 minutes. Intracellular staining for IC/Foxp3-PE from eBiosciences was followed. For all other surface markers (7wellsseven wells), seven—color staining of cells was performed, using CD3-Amcyan, CD4-Alexa700, CD8-APC, CD25-PB, and Annexin FITC, 7-AAD, and IC/CD62L/CD69/CD45RO/CD127/CD28/HLA-DR-PE was performed. Cells were then washed Wash twice and Fix fixed the cells with 0.1% paraformaldehyde. Compensation controls, including an unstained control, were prepared. (Lin-FITC, CD11c-APC, CD123-PE, and CD3-Amcyan were tested in 1 μl/100 μl; CD4-Alexa700, CD25-PB, and 7-AAD were tested in 0.5 ul/100 μl; and LAP-PE, and Annexin-FITC were tested in 3 ul/100 μl).
For surface staining, freshly isolated PBMCs were suspended at 8-10×10^6 cells/ml. Surface two to three colors staining of cells were done with the following surface antibodies: CD4-FITC/CD25-PE, CD8− FITC/CD25-PE, CD3-APC/CD69-PE, CD11c-APC/Lin-FITC/CD86-PE, CD11c-APC/Lin-FITC/CD83-PE, CD11c-APC/Lin-FITC/HLAdr-PE. For LAP staining cells were preincubated with rLAP/control antibody for 20 mins, and stained with CD4-FITC and CD25-PE or CD8-FITC. […]
The inventors next investigated activation of markers and markers associated with regulation on T cells following oral OKT3 treatment. Regulatory T cells were measured by CD25hi, and effector cells were measured by CD25int/lo markers. […]

PBL cells = assay: Cytokine secretion profile of PBL cells stimulated with anti-CD3; format: in vivo, human
Procedure: Nine subjects (3/group) were orally administered 0.2 mg, 1.0 mg or 5.0 mg of OKT3 daily for 5 days and immune parameters measured on days 5, 10 and 30 days (FIG. 12). Six subjects (3/group) received 7.5 mg of beta glucosylceramide in combination with 0.2 mg or 1.0 mg of OKT3 and 3 subjects received GC alone. All subjects were treated with 20 mg of Omeprazole (a proton pump inhibitor) during the 5 days of dosing. Dosing occurred in the morning before breakfast at the study site following a 8 hours fast.
PBMCs were isolated from blood samples using Ficol Hypaque solution. To measure proliferation, 2×10^5 cells per well were cultured in triplicate in RPMI 1640 medium with 5% FBS (Biological Industries, Israel), 100 units/ml penicillin, 100 µg/ml streptomycin, 1% Glutamine, 1% non essential […], 1% sodium pyruvate and β-mercapto-ethanol (Biological Industries, Israel). Cells were stimulated with pre-coated antibodies (in 200 μl PBS/well):μg/well of anti OKT-3 mAb (Ortho Biotech Inc, New Jersey, USA) or 5 μg/ml soluble anti-CD3 mAb (eBioscience, CA, USA) or 2.5 μg/ml anti-CD28 mAb (R&D systems, MN, USA). One set of the above wells were added nothing while 10 μg of GC was added to a similar set for 72 h in culture at 37° C. with 5% CO2. Supernatants were collected for IL-13, IL-17 and IFN-γ. Enzyme-linked immunosorbent assays for these cytokines were performed according to the manufacturer's protocol (R&D Systems, Minneapolis, Minn.). For TGF-β, 2×10^5 cells per well were cultured in serum free media (Biotarget, Biological Industries, Israel). After collecting the supernatants, 1 µCi [^3H]thymidine (Amersham Biosciences, UK) was added to each well, and cells were harvested 18 h later. Proliferation was measured by scintillation counting.
To investigate the effect of oral OKT3 on the cytokine secretion profile of T cells, PBL cells were stimulated with 5 μg anti-CD3 and the secretion of IFN-γ, IL-17, TGF-β and IL-13 was measured.

## OKT3: murine monoclonal anti-CD3 antibody (Orthoclone OKT-3, Ortho Biotech)
T cells; 0.2 mg oral, not shown
  subjects with similar pattern (increase) for CD8+CD25+ T cells: two subjects
T cells; 1.0 mg fed group
  CD4+CD25+ and CD8+CD25+ T cells: increase
T cells; 1.0 mg oral
  CD25hi Foxp3+ cells and CD25hi CTLA4 cells: increase
  expression of TGF-β on CD25int/lo T cells: increase
T cells; 1.0 or 5.0 mg oral
  subjects with similar pattern (increase) for CD8+CD25+ T cells: all six subjects
PBL cells; 0.2 mg and 5.0 mg oral, not shown
  cytokine secretion findings: similar, though not as consistent findings
PBL cells; 1.0 mg oral
  subjects with decrease in IFN-γ: three subjects
  subjects with decrease of IL-17: two out of three subjects
  subjects with increase of TGF-β: two out of three subjects
PBL cells; 1.0 mg oral, not shown
  subjects with increase of IL-13: three out of three subjects
